Measurements from patent US20160368898A1, “2-PYRIDYLOXY-4-METHYL OREXIN RECEPTOR ANTAGONISTS” (MERCK SHARP & DOHME CORP., priority 2013, published 2016).

Experiments:
[1] = molecular target: T1, human orexin-2 receptor (hOX2R) (Homo sapiens, UniProt O43614); assay: FLIPR Ca2+ Flux Assay, CHO cells expressing the human orexin-2 receptor; format: cell-based; conditions: agonist 70 pM Ala-6,12 human orexin-A
T1 construct: expressed in transfected cells; host or cells: CHO cells (grown under G418)
T1 sequence (O43614 1-444): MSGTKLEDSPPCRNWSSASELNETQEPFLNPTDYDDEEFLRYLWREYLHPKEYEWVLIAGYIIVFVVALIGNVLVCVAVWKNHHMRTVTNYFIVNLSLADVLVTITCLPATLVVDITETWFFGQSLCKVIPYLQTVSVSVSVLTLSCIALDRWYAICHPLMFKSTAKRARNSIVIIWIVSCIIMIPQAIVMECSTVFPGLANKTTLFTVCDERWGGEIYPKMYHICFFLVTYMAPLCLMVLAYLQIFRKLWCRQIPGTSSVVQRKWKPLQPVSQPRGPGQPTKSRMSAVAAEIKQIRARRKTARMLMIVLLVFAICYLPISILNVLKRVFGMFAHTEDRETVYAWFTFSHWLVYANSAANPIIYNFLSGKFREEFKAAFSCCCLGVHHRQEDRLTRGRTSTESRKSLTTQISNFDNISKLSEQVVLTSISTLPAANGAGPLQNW
Method: The utility of the compounds in accordance with the present invention as orexin receptor OX1R and/or OX2R antagonists may be readily determined without undue experimentation by methodology well known in the art, including the “FLIPR Ca^2+ Flux Assay” (Okumura et al., Biochem. Biophys. Res. Comm. 280:976-981, 2001). In a typical experiment the OX1 and OX2 receptor antagonistic activity of the compounds of the present invention was determined in accordance with the following experimental method. For intracellular calcium measurements, Chinese hamster ovary (CHO) cells expressing the rat orexin-1 receptor or the human orexin-2 receptor, are grown in Iscove's modified DMEM containing 2 mM L-glutamine, […], 1% hypoxanthine-thymidine supplement, 100 U/ml penicillin, 100 μg/ml streptomycin and 10% heat-inactivated fetal calf serum (FCS). The cells are seeded at 20,000 cells/well into Becton-Dickinson black 384-well clear bottom sterile plates coated with poly-D-lysine. All reagents were from GIBCO-Invitrogen Corp. The seeded plates are incubated overnight at 37° C. and 5% CO2. Ala-6,12 human orexin-A as the agonist is prepared as a 1 mM stock solution in 1% bovine serum albumin (BSA) and diluted in assay buffer (HBSS containing 20 mM HEPES, 0.1% BSA and 2.5 mM probenecid, pH7.4) for use in the assay at a final concentration of 70 pM. Test compounds are prepared as 10 mM stock solution in DMSO, then diluted in 384-well plates, first in DMSO, then assay buffer. On the day of the assay, cells are washed 3 times with 100 μl assay buffer and then incubated for 60 min (37° C., 5% CO2) in 60 μl assay buffer containing 1 μM Fluo-4AM ester, 0.02% pluronic acid, and 1% BSA. The dye loading solution is then aspirated and cells are washed 3 times with 100 μl assay buffer. 30 μl of that same buffer is left in each well. Within the Fluorescent Imaging Plate Reader (FLIPR, Molecular Devices), test compounds are added to the plate in a volume of 25 μl, incubated for 5 min and finally 25 μl of agonist is added. Fluorescence is measured for each well at 1 second intervals for 5 minutes and the height of each fluorescence peak is compared to the height of the fluorescence peak induced by 70 pM Ala-6,12 orexin-A with buffer in place of antagonist. For each antagonist, IC50 value (the concentration of compound needed to inhibit 50% of the agonist response) is determined. Alternatively, compound potency can be assessed by a radioligand binding assay (described in Bergman et. al. Bioorg. Med. Chem. Lett. 2008, 18, 1425-1430) in which the inhibition constant (Ki) is determined in membranes prepared from CHO cells expressing either the OX1 or OX2 receptor. The intrinsic orexin receptor antagonist activity of a compound which may be used in the present invention may be determined by these assays.

[2] = molecular target: T2, hOX1R (Homo sapiens, UniProt O43613); assay: FLIPR Ca2+ Flux Assay, CHO cells expressing the orexin-1 receptor; format: cell-based; conditions: agonist 70 pM Ala-6,12 human orexin-A
T2 construct: expressed in transfected cells; host or cells: CHO cells (grown under G418)
T2 sequence (O43613 1-425): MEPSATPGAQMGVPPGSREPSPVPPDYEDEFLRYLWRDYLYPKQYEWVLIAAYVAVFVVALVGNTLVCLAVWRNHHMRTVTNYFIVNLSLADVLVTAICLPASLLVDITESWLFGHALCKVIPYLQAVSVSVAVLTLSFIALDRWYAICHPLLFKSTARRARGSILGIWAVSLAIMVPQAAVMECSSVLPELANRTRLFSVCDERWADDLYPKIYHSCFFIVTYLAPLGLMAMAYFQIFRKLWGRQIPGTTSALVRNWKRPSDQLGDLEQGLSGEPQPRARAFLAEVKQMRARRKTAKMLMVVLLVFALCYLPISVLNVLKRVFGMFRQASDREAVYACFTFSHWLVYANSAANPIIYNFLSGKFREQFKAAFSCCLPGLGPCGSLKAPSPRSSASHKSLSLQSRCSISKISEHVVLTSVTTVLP

COCc1ccccc1C(=O)N1C[C@H](Oc2cc(C)ccn2)CC[C@H]1C [Example 15, 2-{[(3R,6R)-1-{[2-(methoxymethyl)phenyl]carbonyl}-6-methylpiperidin-3-yl]oxy}-4-methylpyridine] gave an IC50 [1] of 226 nM and an IC50 [2] of over 10000 nM.
